Measured values reported in US4725578A, “Compounds having therapeutic effect and the preparation thereof” (Tobishi Pharmaceutical Co., Ltd., priority 1986, dated 1988).
Entries after “also recorded” stand apart in the source; their conditions may differ.

Columns and labels:
[1] = tested on: P-388 cells; assay: Antineoplastic action against implanted P-388 cells (ip-ip), survival T/C; format: in vivo, CDFl mice; conditions: for T/C % (Treatment/Control %): Table 6, P388, intraperitoneal; for T/C: P 388 (ip-ip), × 5
Description: To the peritoneal cavity of each group of mice consisting of six CDFl mice per group, 10^6 /0.1 ml of P-388 cells or 10^5 /0.1 ml of L-1210 cells were implanted. […]
In the Table, the symbol T/C % means Treatment/Control %, that is the increase in life when the control is 100. […] This method is used in the screening of U.S. National Cancer Institute.
(§1) In Table 7, the symbol "i.P.-i.P." means that the tumor cells are implanted intraperitoneally and the compounds being tested are also administered intraperitoneally. The symbol "TR" is the therapeutic ratio obtained by dividing the dose which provides a maximum T/C value, by the dose which provides a minimum T/C value.

[2] = tested on: L-1210 cells; assay: Antineoplastic action against implanted L-1210 cells (ip-ip), survival T/C; format: in vivo, CDFl mice
Description: In this animal test, the antineoplastic action against the implanted tumor was examined in lower animals, in vivo, in respect of the compounds according to the present invention, by using CDFl mice.
To the peritoneal cavity of each group of mice consisting of six CDFl mice per group, 10^6 /0.1 ml of P-388 cells or 10^5 /0.1 ml of L-1210 cells were implanted. […] While to the control groups of CDFl mice, P-388 and L-1210 cells were implanted in the same manner and they were bred without administration of the compounds.
(§2) In the Table, the symbol T/C % means Treatment/Control %, that is the increase in life when the control is 100. The values are obtained by implanting tumor cells to groups of mice (or rats), administering the compound being tested in various amounts every 24 hours after the implantation of the tumor cells and then calculating the ratio, the median survival time of the group to which the compound has been administered to the survival of the control, multiplied by a factor of 100. This method is used in the screening of U.S. National Cancer Institute.
as §1

[3] = tested on: B-16 melanoma; assay: B16 melanoma (ip-ip), survival T/C; format: in vivo, mice
Description: as §2, with “Institute. […]” for “Institute.”
as §1

[4] = tested on: MM2; assay: MM2 (ip-ip), survival T/C; format: in vivo, mice
Description: as §2, with “Institute. […]” for “Institute.”
as §1
The term in Table 7, last column "3/6 60<", means that 3 mice out of 6 mice continue to live more than 60 days after the implantation of the tumor cells.

[5] = Toxicity test, lethal dose (Litchfield-Wilcoxon); format: in vivo, male 4-weeks CD-1 (ICR) mice; conditions: suspension in 0.5% CMC, 7 days observation
Description: With respect to the compounds of this invention, the lethal dose was determined as follows.
By using male 4-weeks CD-1 (ICR) mice consisting of 5 to 10 mice per group, the desired amount of each compound of this invention was suspended in 0.5% CMC solution and the resultant suspension was administered to each mouse intraperitoneally or intravenously. Observing the life or death as well as the general symptome during 7 days after the administration of the compounds, the value of LD50 for each compounds was estimated from the lethal population observed on the basis of the Litchfield-Wilcoxon method.

[6] = tested on: P 388; assay: P 388 (ip-iv), survival T/C; format: in vivo, mice
Description: as §2
(§3) In Table 9, "iv" and "sc" means that the administration of the compounds is carried out intravenously and the implantation of the tumor cells is carried out subcutaneously.

[7] = tested on: Colon 26; assay: Colon 26 (ip-ip), survival T/C; format: in vivo
Description: as §2

[8] = tested on: Erlich carcinoma; assay: Erlich carcinoma (sc-ip), inhibition; format: in vivo
[9] = tested on: Lewis Lung Carcinoma; assay: Lewis Lung Carcinoma (sc-ip), inhibition; format: in vivo
[10] = tested on: Colon. 38; assay: Colon. 38 (sc-ip), inhibition; format: in vivo; conditions: 4 mg/kg × 11, after 17 days
[11] = Neuropharmacological multidimentional observation (modified Arwin and Smith method); format: in vivo, 4-weeks CD-1 (IRC) mice; conditions: intraperitoneal, 1 to 20 mg/kg, observed every 30 minutes for 180 minutes, compared with patterns of known medicines
Description: In this test, other pharmacological effects which may be obtained by these compounds were investigated.
Each compound of the invention was intraperitoneally administered to 4-weeks CD-1 (IRC) mice (Nippon Charles Liver K.K.) in the dose of 1 to 20 mg/kg with using mice groups consisting of three mice per group. […] The observation was carried out according to the modified Arwin method and Smith method, i.e., neuropharmacological multidimentional observation method.
Making a comparison between the symptom observed and the pattern of the pharmacological action due to the known medicines, it has been discovered that each compound of the invention has the following pharmacological effect.

[12] = tested on: Yoshida sarcoma; assay: Yoshida sarcoma (ip-ip), survival T/C; format: in vivo
Description: as §2

[13] = tested on: Yoshida sarcoma; assay: Yoshida sarcoma (ip-iv), survival T/C; format: in vivo
Description: as §2, §3

[14] = tested on: MOPC-104E; assay: MOPC-104E (ip-ip), survival T/C; format: in vivo
Description: as §2

[15] = tested on: C-1498; assay: C-1498 (ip-ip), survival T/C; format: in vivo
Description: as §2

Compound: COc1ccc(C[C@H]2C(=O)N[C@@H](C)C(=O)N(C)[C@H]3Cc4ccc(cc4)Oc4cc(ccc4OC)C[C@@H](C(=O)N[C@H](C)C(=O)N[C@@H](C)C(=O)N2C)N(C)C3=O)cc1 [Methylether of TPC-A]
- T/C % (Treatment/Control %) ([1]; dose 0.01 mg/kg (printed in the 0.05 column with note "dose, 0.01")): 130.1%
- T/C % (Treatment/Control %) ([1]; dose 0.5 mg/kg): 156.7%
- T/C % (Treatment/Control %) ([1]; dose 2 mg/kg): 164.2%
- T/C % (Treatment/Control %) ([1]; dose 4 mg/kg): 173.6%
- P388 (i.P. - i.P.) T/C (%) ([1]; Table 7, dose 0.01 mg/kg): 130.1%
- P388 (i.P. - i.P.) T/C (%) ([1]; Table 7, dose 0.5 mg/kg): 156.7%
- P388 (i.P. - i.P.) T/C (%) ([1]; Table 7, dose 1 mg/kg): 159.9%
- P388 (i.P. - i.P.) T/C (%) ([1]; Table 7, dose 2 mg/kg): 164.2%
- P388 (i.P. - i.P.) T/C (%) ([1]; Table 7, dose 4 mg/kg): 173.6%
- L1210 (i.P. - i.P.) T/C (%) ([2]; Table 7, dose 0.01 mg/kg): 105.6%
- L1210 (i.P. - i.P.) T/C (%) ([2]; Table 7, dose 0.5 mg/kg): 118.6%
- L1210 (i.P. - i.P.) T/C (%) ([2]; Table 7, dose 1 mg/kg): 120.7%
- L1210 (i.P. - i.P.) T/C (%) ([2]; Table 7, dose 2 mg/kg): 129.3%
- L1210 (i.P. - i.P.) T/C (%) ([2]; Table 7, dose 5 mg/kg): 137.3%
- B16 (i.P. - i.P.) T/C (%) ([3]; Table 7, dose 0.25 mg/kg): 133.8%
- B16 (i.P. - i.P.) T/C (%) ([3]; Table 7, dose 1 mg/kg): 135.3%
- B16 (i.P. - i.P.) T/C (%) ([3]; Table 7, dose 2 mg/kg): 139.1%
- B16 (i.P. - i.P.) T/C (%) ([3]; Table 7, dose 4 mg/kg): 143.0%
- MM2 (i.P. - i.P.) T/C (%) ([4]; Table 7, dose 0.2 mg/kg): 103.1%
- MM2 (i.P. - i.P.) T/C (%) ([4]; Table 7, dose 1 mg/kg): 103.1%
- MM2 (i.P. - i.P.) T/C (%) ([4]; Table 7, dose 2 mg/kg): 118.4%
- MM2 (i.P. - i.P.) T/C (%) ([4]; Table 7, dose 5 mg/kg): 90.8%
- LD50 and 95% Confidence Limit ([5]; intraperitoneal): 10.0(7.0-14.3) mg/kg
- LD50 and 95% Confidence Limit ([5]; intravenous): 16.5(12.6-21.5) mg/kg
- T/C ([6]; 0.56 mg/kg × 9): 115.7%
- T/C ([6]; 2.22 mg/kg × 9): 160.8%
- T/C ([7]; 1 mg/kg × 9): 113.6%
- T/C ([7]; 2 mg/kg × 9): 125.0%
- T/C ([7]; 4 mg/kg × 9): 125.9%
- Inhibition ([8]; 2 mg/kg × 11, after 14 days): 60.5%
- Inhibition ([9]; 4 mg/kg × 11, after 17 days): 51.1%
- Inhibition [10]: 70.1%
- Pharmacological effect estinated [11]: emetic action; also recorded: anorexigenic action

Compound: CCCCCC(=O)Oc1ccc2cc1Oc1ccc(cc1)CC1C(=O)N(C)C(C2)C(=O)NC(C)C(=O)NC(C)C(=O)N(C)C(Cc2ccc(OC)cc2)C(=O)NC(C)C(=O)N1C (stereo not drawn) [Ex. 21, caproate of TPC-A]
- T/C ([1]; in combination: Mitomycin 0.5 mg/kg + Ex 21 0.5 mg/kg): 246.8%
- T/C ([1]; in combination: Mitomycin 0.5 mg/kg + Ex 21 5 mg/kg): 270.3%
- T/C % (Treatment/Control %) ([1]; dose 0.05 mg/kg): 133.6%
- T/C % (Treatment/Control %) ([1]; dose 0.5 mg/kg): 143.2%
- T/C % (Treatment/Control %) ([1]; dose 2 mg/kg): 151.6%
- T/C % (Treatment/Control %) ([1]; dose 10 mg/kg): 197.2%
- P388 (i.P. - i.P.) T/C (%) ([1]; Table 7, dose 0.01 mg/kg): 133.7%
- P388 (i.P. - i.P.) T/C (%) ([1]; Table 7, dose 0.1 mg/kg): 135.9%
- P388 (i.P. - i.P.) T/C (%) ([1]; Table 7, dose 2 mg/kg): 152.2%
- L1210 (i.P. - i.P.) T/C (%) ([2]; Table 7, dose 0.5 mg/kg): 115.6%
- L1210 (i.P. - i.P.) T/C (%) ([2]; Table 7, dose 2 mg/kg): 126.6%
- L1210 (i.P. - i.P.) T/C (%) ([2]; Table 7, dose 10 mg/kg): 67.3%
- effectiveness against B-16 melanoma ([3]; (see Table 7)): effective
- B16 (i.P. - i.P.) T/C (%) ([3]; Table 7, dose 0.5 mg/kg): 143.5%
- B16 (i.P. - i.P.) T/C (%) ([3]; Table 7, dose 2 mg/kg): 152.0%
- B16 (i.P. - i.P.) T/C (%) ([3]; Table 7, dose 5 mg/kg): 165.5%
- effectiveness against MM2 ([4]; (see Table 7)): effective
- mice continuing to live more than 60 days after implantation (60<) ([4]; Table 7, MM2 (i.P. - i.P.), dose 2 mg/kg): 2/6
- MM2 (i.P. - i.P.) T/C (%) ([4]; Table 7, dose 0.5 mg/kg): 112.1%
- MM2 (i.P. - i.P.) T/C (%) ([4]; Table 7, dose 2 mg/kg): 127.3%
- MM2 (i.P. - i.P.) T/C (%) ([4]; Table 7, dose 10 mg/kg): 93.9%
- T/C ([6]; 5.56 mg/kg × 9): 117.2%
- T/C ([6]; 6.94 mg/kg × 9): 120.4%
- T/C ([12]; 0.1 mg/kg × 5): 167.0%
- T/C ([12]; 0.5 mg/kg × 5): 200.0%
- T/C ([12]; 1 mg/kg × 5): 213.3%
- animals living more than 30 days (30<) ([12]; 1 mg/kg × 5): 2/6
- T/C ([12]; 2.5 mg/kg × 5): 167.0%
- T/C ([13]; 0.83 mg/kg × 9): 116.7%
- T/C ([13]; 1.11 mg/kg × 9): 124.8%
- Inhibition ([8]; 8 mg/kg × 11, after 14 days): 58.5%
- Inhibition ([9]; 0.5 mg/kg × 25, after 17 days): 24.3%
- T/C ([14]; 2 mg/kg × 9 times): 120.5%
- T/C ([14]; 5 mg/kg × 9 times): 136.8%
- T/C ([15]; 2 mg/kg × 5 days): 110.2%
- T/C ([15]; 8 mg/kg × 5 days): 122.2%
